Assay: Absorption, distribution, metabolism and excretion of oral [14C]vorasidenib in humans; metabolite profiling in plasma, urine, feces
Conditions: human, in vivo
Method: Metabolite profiling and identification of vorasidenib (AG-881) was performed in plasma, urine, and fecal samples collected from five healthy subjects after a single 50-mg (100 μCi) oral dose of [14C]AG-881 and concomitant intravenous microdose of [^13C3 ^15N3]AG-881.
Plasma samples collected at selected time points from 0 through 336 hour postdose were pooled across subjects to generate 0- to 72 and 96-336-hour area under the concentration-time curve (AUC)-representative samples. Urine and feces samples were pooled by subject to generate individual urine and fecal pools. Plasma, urine, and feces samples were extracted, as appropriate, the extracts were profiled using high performance liquid chromatography (HPLC), and metabolites were identified by liquid chromatography-mass spectrometry (LC-MS and/or LC-MS/MS) analysis and by comparison of retention time with reference standards, when available.
Due to low radioactivity in samples, plasma metabolite profiling was performed by using accelerator mass spectrometry (AMS). In plasma, AG-881 was accounted for 66.24 and 29.47% of the total radioactivity in the pooled AUC0-72 h and […] plasma, respectively. The most abundant radioactive peak (P7; M458) represented 0.10 and 43.92% of total radioactivity for pooled AUC0-72 and AUC96-336 h plasma, respectively. All other radioactive peaks accounted for less than 6% of the total plasma radioactivity and were not identified.

Compound: C[C@@H](Nc1nc(N[C@H](C)C(F)(F)F)nc(-c2cccc(S(=O)(=O)O)n2)n1)C(F)(F)F [Compound M460-1]
- radioactivity recovered in feces, % of the dose: 2-5 % of the dose

Compound: CS(=O)(=O)c1cccc(-c2nc(N)nc(N)n2)n1 [Compound M266]
- radioactivity recovered in urine, % of the dose: 2.54 % of the dose

Compound: C[C@@H](Nc1nc(N[C@H](C)C(F)(F)F)nc(-c2cccc(SCC(N)C(=O)O)n2)n1)C(F)(F)F (some centres unmarked) [Compound M499]
- radioactivity recovered in feces, % of the dose: 2-5 % of the dose

Compound: C[C@@H](Nc1nc(N[C@H](C)C(F)(F)F)nc(-c2cccc(Cl)n2)n1)C(F)(F)F [AG-881, 6-(6-chloropyridin-2-yl)-N2, N4-bis((R)-1,1,1-trifluoropropan-2-yl)-1,3,5-triazine-2,4-diamine, reference compound]
- radioactivity recovered in feces, % of the dose: 55.5 % of the dose
- unchanged parent detected in urine: no AG-881 was detected

Source: patent US12303512B2, “Therapeutically active compounds and their methods of use” (Servier Pharmaceuticals LLC, priority 2021, dated 2025)
